From PubChem BioAssay (NCI)
Several values for one entry are separate records, joined by “and”; a condition that tells them apart may be missing. Equal entries are not always repeated.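 Five compound concentrations were applied to cells in 96-well plates for 48 hours; endpoints were derived by simple linear interpolation of the resulting dose-response curve. The concentration for 50% growth inhibition is given as GI50. The concentration for full growth arrest is given as TGI.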

What was measured:
Test in all cases: NCI-60 cell line screen, 48 h
OVCAR-4 ovarian = test system: OVCAR-4 ovarian
SW-620 colon = test system: SW-620 colon
HOP-92 NSCLC = test system: HOP-92 NSCLC
TK-10 renal = test system: TK-10 renal
HT29 colon = test system: HT29 colon
ACHN renal = test system: ACHN renal
HOP-62 NSCLC = test system: HOP-62 NSCLC
CCRF-CEM leukemia = test system: CCRF-CEM leukemia
UACC-62 melanoma = test system: UACC-62 melanoma
SR leukemia = test system: SR leukemia

Compound	GI50 (OVCAR-4 ovarian)	TGI (OVCAR-4 ovarian)	GI50 (SW-620 colon)	TGI (SW-620 colon)	GI50 (HOP-92 NSCLC)	TGI (HOP-92 NSCLC)	GI50 (TK-10 renal)	TGI (TK-10 renal)	GI50 (HT29 colon)	TGI (HT29 colon)	GI50 (ACHN renal)	TGI (ACHN renal)	GI50 (HOP-62 NSCLC)	TGI (HOP-62 NSCLC)	GI50 (CCRF-CEM leukemia)	TGI (CCRF-CEM leukemia)	GI50 (UACC-62 melanoma)	TGI (UACC-62 melanoma)	GI50 (SR leukemia)	TGI (SR leukemia)
CC(=O)[CH-]C(=O)c1ccccc1.CC(=O)[CH-]C(=O)c1ccccc1.CC(=O)[CH-]C(=O)c1ccccc1.[Tl+3]	26.1 µM	> 100 µM	57.5 µM	> 100 µM	40.6 µM	> 85.7 µM	> 59.2 µM	> 100 µM	57.1 µM	> 100 µM	51.1 µM	> 100 µM	33.5 µM	99.9 µM	6.81 µM	30.9 µM	32 µM	> 100 µM		
CN(C)CC(/C(Cc1ccccc1)=N\NC(=O)c1ccncc1)c1ccccc1 (configuration not stated)		> 100 µM		> 100 µM		> 100 µM		> 100 µM		> 100 µM		97.7 µM		> 100 µM		> 100 µM		> 100 µM		
c1ccc(C(=NNc2nc3ccccc3o2)c2ccccn2)nc1	0.0128 µM		0.0524 µM	39.8 µM and 19.1 µM	0.0751 µM		0.0673 µM	> 100 µM and 17.5 µM	< 0.0361 µM	> 66.8 µM and 12.7 µM	0.0395 µM		0.0532 µM		0.033 µM		0.0863 µM	0.756 µM and 0.413 µM		
Nc1nc(Nc2ccc3c(c2)CC[C@@H](N2CCCC2)CC3)nn1-c1cc2c(nn1)-c1ccccc1CCC2	1.44 µM	3.31 µM	1.7 µM	3.44 µM			1.35 µM	2.97 µM	1.08 µM	4.01 µM	0.878 µM	2.11 µM			0.478 µM	2.53 µM	1.89 µM	3.67 µM	0.441 µM	2.69 µM
Nc1ccccc1/C=C\c1ccccc1				> 100 µM		> 100 µM		> 100 µM		> 100 µM		> 100 µM		> 100 µM		> 100 µM		> 100 µM		
C1CNCCNCCNCCN1				> 100 µM				> 100 µM		> 100 µM		> 100 µM		> 100 µM		> 100 µM		> 100 µM		> 100 µM
O=C1CCCCCCCC/C=C/CCC(c2ccco2)O1 (configuration not stated)			58.3 µM	> 100 µM	50.5 µM	> 100 µM	23.5 µM	> 100 µM	44.1 µM	> 100 µM	> 100 µM	> 100 µM	41.2 µM	> 100 µM	27 µM	> 100 µM	26.2 µM	> 100 µM		
O=C1CCCCCCCCCCC(=O)C2CCOCCOCCOCCC1Cc1cccc(n1)C2		> 100 µM		> 100 µM				> 100 µM		> 100 µM		> 100 µM		> 100 µM		> 100 µM		> 100 µM		
O=C1/C(=C/c2ccc(O)c([N+](=O)[O-])c2)CCC/C1=C\c1ccc(O)c([N+](=O)[O-])c1	4.34 µM	50 µM and > 100 µM	30.1 µM	50 µM and 99.2 µM			38.8 µM	50 µM and > 100 µM	19 µM	30.7 µM and 37.6 µM	20.4 µM	14.8 µM and 38.5 µM	25 µM	28 µM and > 100 µM	14.9 µM	50 µM and 56.2 µM	14.1 µM	15.5 µM and 37.2 µM		
N/N=C(\CC1OC(=O)c2ccccc21)c1ccco1 (configuration not stated)		> 100 µM		> 100 µM		> 100 µM		> 100 µM		> 100 µM		> 100 µM				> 100 µM		> 100 µM		
Cc1cccc(C)c1NC(=O)CCCC(=O)CC(=O)/C=C/c1ccccc1		> 100 µM		> 100 µM		> 100 µM		> 100 µM		> 100 µM		> 100 µM				> 100 µM		> 100 µM		
FC(F)(F)c1cccc(COCCN2CCN(Cc3cccc(C(F)(F)F)c3)CC2)c1		32.1 µM		28.3 µM				27.4 µM		44.6 µM		29.1 µM		42.1 µM		46.6 µM		28.6 µM		> 100 µM
CC([C@H]1CCC2C3CCC4C[C@@H](NC=O)CC[C@]4(C)C3CC[C@@]21C)N(C)C (some centres not stated)	4.72 µM	23.1 µM	1.85 µM	3.95 µM	1.13 µM	7.61 µM	10.1 µM	24.7 µM	0.595 µM	2.42 µM	5.17 µM	18 µM	2.15 µM	5.19 µM	2.31 µM	10.9 µM	2.04 µM	4.08 µM		
CCOc1cc2c(cnc3c4cc(OC)c(OC)cc4ccc23)cc1OC		> 100 µM		> 100 µM				> 100 µM		> 100 µM		> 100 µM		> 100 µM		> 100 µM		> 100 µM		
O=C(Nc1ccc(-n2cc(-c3ccncc3)c(-c3ccc(Cl)c(O)c3)n2)cc1)Nc1cc(C(F)(F)F)cc(C(F)(F)F)c1	0.404 µM	3.98 µM	2.24 µM	4.44 µM	1.34 µM	3.99 µM	3.05 µM	11.4 µM	1.95 µM	3.74 µM	2.92 µM	10.3 µM	1.8 µM	3.66 µM			2.23 µM	5.37 µM		
COC(=O)NC/C=C\c1nc(CC/C=C\C(=O)OC2CC3CC(=O)O[C@H](/C=C/CC(C)C)C[C@H]4CCC(C)C(C[C@H](OC)CC(C2)O3)O4)co1 (some centres not stated)	23.4 µM	> 100 µM	< 0.01 µM	> 100 µM			1.55 µM	74 µM	0.742 µM	> 100 µM			< 0.01 µM	62.7 µM			0.0635 µM	> 100 µM		
O=C(c1cc(F)c(Cl)cc1Cl)N1N=C(c2ccccc2)CC1(O)c1ccccc1 (configuration not stated)	17.8 µM	57.8 µM	18.9 µM	36.9 µM	13 µM	29.8 µM	30.8 µM	80.8 µM	12.1 µM	25.3 µM	23 µM	59.4 µM	13.7 µM	27.6 µM			11.1 µM	23.9 µM		
